Patent publication US12109184B2, “Personalized methods of treating cancer” (CANCER RESEARCH TECHNOLOGY LIMITED, priority 2020, dated 2024)
Entries after “also recorded” stand apart in the source; their conditions may differ.

Key:
[1] = test system: HCT116, SW480, MDA-MB-231, and MIAPaCa-2 cells; settings: exogenous GSH 5 mM
Procedure: HCT116, SW480, MDA-MB-468, MDA-MB-231, AsPC-1, BxPC-3, CFPAC-1, MIAPaCa-2, PANC-1, Panc10.05, SW1990, U-251, LN-18, LN-229, T98G, U-343, A-172 cells were used. Cell lines were authenticated using Short Tandem Repeat (STR) profiling and tested for mycoplasma. Colorectal and breast cancer cell lines were grown in Dulbecco's Modified Eagle Medium (DMEM), pancreatic ductal adenocarcinoma (PDAC) cell lines were grown in Roswell Park Memorial institute (RPMI) 1640. All cell lines were supplemented with penicillin-streptomycin, amphotericin, 2 mM L-glutamine, and 10% fetal bovine serum (FBS). Cells were kept at 37° C. in 5% CO2 in a humidified cell culture incubator. A formulated medium lacking cysteine, cystine, methionine, and serine was used as a base for creating experimental media. The base medium formulation contained 0.2 mM L-histidine, 0.4 mM L-isoleucine, 0.4 mM L-leucine, 0.4 mM L-lysine, 0.2 mM L-phenylalanine, 0.4 mM L-threonine, 0.08 mM L-tryptophan, 0.4 mM L-valine, 0.2 mM L-arginine, 2 mM L-glutamine, 0.2 mM L-tyrosine, 0.4 mM L-alanine, 0.3 mM L-proline, 0.15 mM L-glutamic acid, 0.1 mM L-aspartic acid, 0.2 mM L-asparagine, and 0.4 mM glycine. […]
Cells were seeded at 6×10^4 cells per well into 24-well plates (triplicate wells per condition) in the relevant complete medium and adhered for a full 24-hour period. […] DAPI-stained cell nuclei were detected via microscopy. […]

MDA-MB-231 cells = assay: Steady state metabolite measurements by LC-MS; format: cell-based
Procedure: Metabolomics experiments were performed as follows. Cells were seeded into 6-well plates (5×10^5-1.5×10^6 cells/mL, depending on time-course, triplicate wells per condition) in complete medium and adhered overnight. Cells were washed with PBS, and the relevant experimental media were added for the stated times. Duplicate wells were used for cell counting. Cell counts were used to normalize the volume of lysis solvent prior to metabolite extractions (2×10^6 cells/mL). Cells were washed quickly in PBS, then ice-cold lysis solvent (methanol 50%, acetonitrile 30%, water 20%) was added, and cells were scraped on ice. Lysates were transferred to 1.5 mL tubes on ice, vortexed, then spun by centrifugation at 15,000 rpm at 4° C. for 10 minutes. Supernatants were collected and stored at -80° C. for LC-MS analysis. Prepared samples were analyzed on an LC-MS platform consisting of an […] system and an ExactiveTM mass spectrometer. A Sequant® ZIC®-HILIC column (4.6 mm×150 mm, 3.5 μm) was used to separate the metabolites with the mobile phase using A=0.1% (v/v) formic acid in water and B=0.1% (v/v) formic acid in acetonitrile. A gradient program starting at 20% of A and linearly increasing to 80% at 30 min was used followed by washing (92% of A for 5 mins) and re-equilibration (20% of A for 10 min) steps. The total run time of the method was 45 min. The LC stream was desolvated and ionized in the HESI probe. The ExactiveTM mass spectrometer was operated in full scan mode over a mass range of 70-1,200 m/z at a resolution of 50,000 with polarity switching. The LC-MS raw data was converted into mzML files by using ProteoWizard and imported to MZMine 2.10 for peak extraction and sample alignment. An in-house database including all possible ^13C and ^15N isotopic m/z values of the relevant metabolites was used for the assignment of LCMS signals. Finally the peak areas were used for comparative quantification.

[2] = test system: breast, colorectal and pancreatic cancer cell lines; assay: Cell counting in complete or cysteine-free medium, cell lines not given; format: cell-based; settings: supplementation during cysteine starvation
Procedure: The base medium formulation contained 0.2 mM L-histidine, 0.4 mM L-isoleucine, 0.4 mM L-leucine, 0.4 mM L-lysine, 0.2 mM L-phenylalanine, 0.4 mM L-threonine, 0.08 mM L-tryptophan, 0.4 mM L-valine, 0.2 mM L-arginine, 2 mM L-glutamine, 0.2 mM L-tyrosine, 0.4 mM L-alanine, 0.3 mM L-proline, 0.15 mM L-glutamic acid, 0.1 mM L-aspartic acid, 0.2 mM L-asparagine, and 0.4 mM glycine.
DAPI-stained cell nuclei were detected via microscopy.
AMD1 inhibitor sardomozide/SAM486A, GPX4 inhibitor RSL3, and CSE inhibitor beta-cyano-L-alanine were used.
For experiments using spermine oxidase (SMOX) and polyamine oxidase (PAOX) inhibitors or MTOB, cells were pre-treated with stated concentrations for 16 hours in complete medium. After pre-treatment, cells were washed in PBS, and treatment was continued in complete or cysteine-free medium for stated times. After treatment was finished, cells were fixed and stained as described above. For experiments using MTA, polyamines, GPX4 and CSE inhibitors, treatment started at the same time as cysteine starvation. For experiments involving hypoxic conditions, cells were seeded in normoxic conditions and allowed to adhere for 24 hours before control and cysteine starvation medium was added and cells were immediately transferred either to a humidified cell culture incubator set to 37° C. in 20% O2 (normoxia), or a hypoxia chamber set to 37° C. in 1% O2 (hypoxia) for the stated times. Cells were fixed immediately and stained as described above.

[3] = test system: SW480 and MDA-MB-231 cells; assay: Cell counting, rescue by cysteine precursors during cysteine starvation; format: cell-based
Procedure: HCT116, SW480, MDA-MB-468, MDA-MB-231, AsPC-1, BxPC-3, CFPAC-1, MIAPaCa-2, PANC-1, Panc10.05, SW1990, U-251, LN-18, LN-229, T98G, U-343, A-172 cells were used. Cell lines were authenticated using Short Tandem Repeat (STR) profiling and tested for mycoplasma. Colorectal and breast cancer cell lines were grown in Dulbecco's Modified Eagle Medium (DMEM), pancreatic ductal adenocarcinoma (PDAC) cell lines were grown in Roswell Park Memorial institute (RPMI) 1640. All cell lines were supplemented with penicillin-streptomycin, amphotericin, 2 mM L-glutamine, and 10% fetal bovine serum (FBS). Cells were kept at 37° C. in 5% CO2 in a humidified cell culture incubator. A formulated medium lacking cysteine, cystine, methionine, and serine was used as a base for creating experimental media. The base medium formulation contained 0.2 mM L-histidine, 0.4 mM L-isoleucine, 0.4 mM L-leucine, 0.4 mM L-lysine, 0.2 mM L-phenylalanine, 0.4 mM L-threonine, 0.08 mM L-tryptophan, 0.4 mM L-valine, 0.2 mM L-arginine, 2 mM L-glutamine, 0.2 mM L-tyrosine, 0.4 mM L-alanine, 0.3 mM L-proline, 0.15 mM L-glutamic acid, 0.1 mM L-aspartic acid, 0.2 mM L-asparagine, and 0.4 mM glycine. The base medium was supplemented with 10% dialyzed FBS, penicillin-streptomycin, and amphotericin. To ensure an adequate supply of vitamin B6 (a crucial co-factor for de novo cysteine synthesis), base medium was supplemented with additional 20 μM vitamin B6. The control experimental medium was the base medium supplemented with 0.4 mM L-cysteine, 0.2 mM L-methionine, and 0.4 mM L-serine. The cysteine starvation (−Cys) experimental medium was base medium supplemented with 0.2 mM L-methionine and 0.4 mM L-serine.
Cells were seeded at 6×10^4 cells per well into 24-well plates (triplicate wells per condition) in the relevant complete medium and adhered for a full 24-hour period. A ‘time-0’ plate was included to record the starting cell number to calculate relative cell numbers. Cells were washed once with phosphate-buffered saline (PBS) before receiving experimental medium containing or lacking the specified amino acids, metabolites, or drugs. At the stated time-points the medium was removed, cells were fixed in a 4% formalin-PBS solution. Cells were then washed and stored in PBS before staining with 4′,6-diamidino-2-phenylindole (DAPI)-Triton™ X100-PBS solution for 1 hour, followed by storage in PBS at 4° C. until further analysis. DAPI-stained cell nuclei were detected via microscopy.
Homocysteine, cystathionine, glutathione, putrescine, spermine, spermidine, GPX4 inhibitor ML210, SMOX inhibitor MDL 72527, PAOX inhibitor diminazene aceturate, ferrostatin-1 and erastin were used. AMD1 inhibitor sardomozide/SAM486A, GPX4 inhibitor RSL3, and CSE inhibitor beta-cyano-L-alanine were used. […]

[4] = test system: HCT116, SW480, MDA-MB-231 and MDA-MB-468 cells; assay: Western blot of transsulfuration pathway enzyme expression; format: cell-based; settings: medium lacking cysteine with 0.8 mM homocysteine, 24 hr
Source text: Protein was extracted from whole cells by lysis in RIPA buffer supplemented with a protease and […] cocktail. Lysates were cleared using centrifugation, resolved on 4-12% bis-tris pre-cast gels, and transferred to nitrocellulose membranes. Primary antibodies used were MTAP, AMD1, ODC1, GPX4, AHCY, CBS, CSE, and actin as a loading control on the same blots. Secondary antibodies used were IRDye800CW anti-mouse, IRDye680RD anti-mouse, IRDye800CW anti-rabbit, and IRDye680RD anti-rabbit. Protein bands were detected and quantified using an infrared scanner and imaging software.

[5] = medium lacking cysteine with 5 mM glutathione
[6] = medium lacking cysteine, supplement 0.2 mM

| Compound | cell death and proliferation during cysteine starvation [1] | intracellular GSH levels (MDA-MB-231 cells; [5]) | intracellular cysteine and γ-glutamylcysteine levels (MDA-MB-231 cells; [5]) | rescue from cysteine starvation-induced cell death (summary in discussion) [2] | rescue of survival/proliferation during cysteine starvation ([3]; supplement at 0.2 mM) | restoration of proliferation during cysteine starvation ([3]; supplement at 0.8 mM) | intracellular cysteine levels (MDA-MB-231 cells; [6]) | intracellular homocysteine and cystathionine levels (MDA-MB-231 cells; [6]) | intracellular γ-glutamylcysteine and GSH levels (MDA-MB-231 cells; [6]) | intracellular cysteine levels (MDA-MB-231 cells; medium lacking cysteine, supplement 0.8 mM, 8 h) | transsulfuration pathway enzyme expression beyond starvation alone [4] |
| --- | --- | --- | --- | --- | --- | --- | --- | --- | --- | --- | --- |
| N[C@@H](CCC(=O)N[C@@H](CS)C(=O)NCC(=O)O)C(=O)O [GSH, glutathione] | prevented cell death and restored proliferation | fully restored | partial rescue |  |  |  |  |  |  |  |  |
| N[C@@H](CCS)C(=O)O [homocysteine] |  |  |  | rescued from starvation-induced cell death; also recorded: able to rescue cells from cysteine starvation | substantial rescue | further able to restore proliferation; also recorded: restored proliferation and increased cell survival | moderate increases | significantly increased | more marked increases | significant increase | little impact |
